Results: patent publication US20210261642A1, “SOLUBILITY OF GLP-1 PEPTIDE” (Novo Nordisk A/S, priority 2017, published 2021)

Assay: Assay (I): Determination of Solubility (96-well plate, pH 3.0-11.0, organic solvent 0-70% w/w, UV absorption at 280 nm)
Format: physicochemical
Conditions: Method 1
Description: Assay (I): Determination of Solubility
96-Well Plate Preparation
96-well plates containing target peptide in a solid form were prepared in one of two ways:
Method 1 (evaporation): Addition of 100 μl stock solution of said peptide at a concentration of 4-6 mg/ml to each well of a 96-well half area plate (150 μl well size). Subsequently the solvent was evaporated by applying a vacuum until the solvent was completely removed.
Method 2 (precipitation): Addition of a certain volume of a stock solution of said peptide containing to each well of a 96-well half area plate followed by the addition of a certain volume of concentrated phosphoric acid to obtain a pH of 4.6 followed by addition of a certain volume of ethanol resulting in a final ethanol concentration of 20% v/v. Subsequently the plate was stored at 4° C. for 1 h and then centrifuged at 4,000 rpm for 20 min. Finally the supernatant was removed. The concentration of the stock solution was chosen in a way that the final amount of peptide after supernatant removal was >0.4 mg per well.
In both cases the stock solution was prepared by adding de-ionized water to a certain amount of powder of said peptide followed by a stepwise addition of small amounts of a concentrated sodium hydroxide solution until said peptide was completely in solution.
To determine solubility of a target peptide at different pH and organic solvent concentrations, two different buffer systems were used in independent experiments to cover the whole range from pH 3.0 to pH 11.0. Buffer system 1 covers pH 3.0-7.5 and buffer system 2 covers pH 7.5-11.0. For each buffer system 96 different solvent compositions were premixed in the following way: • 1. A low pH buffer (adjusted to either pH 3.0 or pH 7.5) and a high pH buffer (adjusted to either pH 7.5 or pH 11.0) were mixed at 8 different ratios to obtain values between pH 3.0 and pH 7.5 or pH 7.5 and pH 11.0, respectively. The total volume after mixing was 300 μl. • 2. 12 different amounts of organic solvent were then added to these buffers to obtain organic solvent (e.g. ethanol) concentrations between 0 and 70% w/w. • 3. Water was then added to obtain a total weight of 1.0 g of solvent in each well.
After preparing the 96 different solvent systems, 100 μl of each system was transferred to the 96-well plate containing the solid form of the target peptide (prepared as described in the section “96-well plate preparation”). The plate was then stored at a given temperature (between 5° C. and 70° C.) for a given time on a rotating shaker set to 400 rpm. At regular time intervals the plate was centrifuged (4,000 rpm for 10 min) and a 10 μl sample was taken from each well. The samples were then analysed by UV absorption at 280 nm for peptide quantification. Peptide concentration results are given as UV absorption at 280 nm of the sample subtracted UV absorption at 280 nm of a well comprising 10 μl water.
The buffers used were as follows: • Buffer system 1 (for the pH range from pH 3.0-7.5)
• Buffer system 2 (for the pH ranae from pH 7.5-11.0)
Solubility of liraglutide was determined using Assay (I) described herein. Liraglutide was prepared using Method 1 (evaporation) or Method 2 (precipitation) as described in subsection “96-well plate preparation”.

Peptide concentration after 5 min (MeCN 19.1% w/w, pH 8.5, 5° C.): 1.2 mg/mL
Peptide concentration after 180 min (MeCN 19.1% w/w, pH 8.5, 5° C.): 2.5 mg/mL
Peptide concentration after 24 h (MeCN 19.1% w/w, pH 8.5, 5° C.): >4.0 mg/mL
Peptide concentration after 5 min (MeCN 19.1% w/w, pH 9.0, 5° C.): 0.9 mg/mL
Peptide concentration after 180 min (MeCN 19.1% w/w, pH 9.0, 5° C.): 2.3 mg/mL
Peptide concentration after 24 h (MeCN 19.1% w/w, pH 9.0, 5° C.): >4.0 mg/mL
Peptide concentration after 5 min (MeCN 19.1% w/w, pH 9.5, 5° C.): 1.1 mg/mL
Peptide concentration after 180 min (MeCN 19.1% w/w, pH 9.5, 5° C.): 3.3 mg/mL
Peptide concentration after 24 h (MeCN 19.1% w/w, pH 9.5, 5° C.): >4.0 mg/mL
Peptide concentration after 5 min (MeCN 19.1% w/w, pH 10.0, 5° C.): 1.4 mg/mL
Peptide concentration after 180 min (MeCN 19.1% w/w, pH 10.0, 5° C.): 3.8 mg/mL
Peptide concentration after 24 h (MeCN 19.1% w/w, pH 10.0, 5° C.): >4.0 mg/mL
Peptide concentration after 5 min (MeCN 19.1% w/w, pH 10.5, 5° C.): 1.4 mg/mL
Peptide concentration after 180 min (MeCN 19.1% w/w, pH 10.5, 5° C.): >4.0 mg/mL
Peptide concentration after 24 h (MeCN 19.1% w/w, pH 10.5, 5° C.): >4.0 mg/mL
Peptide concentration after 5 min (MeCN 19.1% w/w, pH 11.0, 5° C.): 1.0 mg/mL
Peptide concentration after 180 min (MeCN 19.1% w/w, pH 11.0, 5° C.): 2.6 mg/mL
Peptide concentration after 24 h (MeCN 19.1% w/w, pH 11.0, 5° C.): >4.0 mg/mL
Peptide concentration after 5 min (MeCN 25.5% w/w, pH 8.0, 5° C.): 1.1 mg/mL
Peptide concentration after 180 min (MeCN 25.5% w/w, pH 8.0, 5° C.): 3.2 mg/mL
Peptide concentration after 24 h (MeCN 25.5% w/w, pH 8.0, 5° C.): >4.0 mg/mL
Peptide concentration after 5 min (MeCN 25.5% w/w, pH 8.5, 5° C.): 1.4 mg/mL
Peptide concentration after 180 min (MeCN 25.5% w/w, pH 8.5, 5° C.): 3.5 mg/mL
Peptide concentration after 24 h (MeCN 25.5% w/w, pH 8.5, 5° C.): >4.0 mg/mL
Peptide concentration after 5 min (MeCN 25.5% w/w, pH 9.0, 5° C.): 0.5 mg/mL
Peptide concentration after 180 min (MeCN 25.5% w/w, pH 9.0, 5° C.): >4.0 mg/mL
Peptide concentration after 24 h (MeCN 25.5% w/w, pH 9.0, 5° C.): >4.0 mg/mL
Peptide concentration after 5 min (MeCN 25.5% w/w, pH 9.5, 5° C.): 1.2 mg/mL
Peptide concentration after 180 min (MeCN 25.5% w/w, pH 9.5, 5° C.): >4.0 mg/mL
Peptide concentration after 24 h (MeCN 25.5% w/w, pH 9.5, 5° C.): >4.0 mg/mL
Peptide concentration after 5 min (MeCN 25.5% w/w, pH 10.0, 5° C.): 1.4 mg/mL
Peptide concentration after 180 min (MeCN 25.5% w/w, pH 10.0, 5° C.): 3.4 mg/mL
Peptide concentration after 24 h (MeCN 25.5% w/w, pH 10.0, 5° C.): >4.0 mg/mL
Peptide concentration after 5 min (MeCN 25.5% w/w, pH 10.5, 5° C.): 1.5 mg/mL
Peptide concentration after 180 min (MeCN 25.5% w/w, pH 10.5, 5° C.): 3.8 mg/mL
Peptide concentration after 24 h (MeCN 25.5% w/w, pH 10.5, 5° C.): >4.0 mg/mL
Peptide concentration after 5 min (MeCN 25.5% w/w, pH 11.0, 5° C.): 1.0 mg/mL
Peptide concentration after 180 min (MeCN 25.5% w/w, pH 11.0, 5° C.): 3.1 mg/mL
Peptide concentration after 24 h (MeCN 25.5% w/w, pH 11.0, 5° C.): >4.0 mg/mL
Peptide concentration after 5 min (MeCN 31.8% w/w, pH 8.0, 5° C.): 0.9 mg/mL
Peptide concentration after 180 min (MeCN 31.8% w/w, pH 8.0, 5° C.): 2.7 mg/mL
Peptide concentration after 24 h (MeCN 31.8% w/w, pH 8.0, 5° C.): >4.0 mg/mL
Peptide concentration after 5 min (MeCN 31.8% w/w, pH 8.5, 5° C.): 2.1 mg/mL
Peptide concentration after 180 min (MeCN 31.8% w/w, pH 8.5, 5° C.): 3.6 mg/mL
Peptide concentration after 24 h (MeCN 31.8% w/w, pH 8.5, 5° C.): >4.0 mg/mL
Peptide concentration after 5 min (MeCN 31.8% w/w, pH 9.0, 5° C.): 0.8 mg/mL
Peptide concentration after 180 min (MeCN 31.8% w/w, pH 9.0, 5° C.): 2.7 mg/mL
Peptide concentration after 24 h (MeCN 31.8% w/w, pH 9.0, 5° C.): >4.0 mg/mL
Peptide concentration after 5 min (MeCN 31.8% w/w, pH 9.5, 5° C.): 0.9 mg/mL
Peptide concentration after 180 min (MeCN 31.8% w/w, pH 9.5, 5° C.): 3.3 mg/mL
Peptide concentration after 24 h (MeCN 31.8% w/w, pH 9.5, 5° C.): >4.0 mg/mL
SMILES: CCCCCCCCCCCCCCCC(=O)N[C@@H](CCC(=O)NCCCC[C@H](NC(=O)[C@H](C)NC(=O)[C@H](C)NC(=O)[C@H](CCC(N)=O)NC(=O)CNC(=O)[C@H](CCC(=O)O)NC(=O)[C@H](CC(C)C)NC(=O)[C@H](Cc1ccc(O)cc1)NC(=O)[C@H](CO)NC(=O)[C@H](CO)NC(=O)[C@@H](NC(=O)[C@H](CC(=O)O)NC(=O)[C@H](CO)NC(=O)[C@@H](NC(=O)[C@H](Cc1ccccc1)NC(=O)[C@@H](NC(=O)CNC(=O)[C@H](CCC(=O)O)NC(=O)[C@H](C)NC(=O)[C@@H](N)Cc1cnc[nH]1)[C@@H](C)O)[C@@H](C)O)C(C)C)C(=O)N[C@@H](CCC(=O)O)C(=O)N[C@@H](Cc1ccccc1)C(=O)N[C@H](C(=O)N[C@@H](C)C(=O)N[C@@H](Cc1c[nH]c2ccccc12)C(=O)N[C@@H](CC(C)C)C(=O)N[C@H](C(=O)N[C@@H](CCCNC(=N)N)C(=O)NCC(=O)N[C@@H](CCCNC(=N)N)C(=O)NCC(=O)O)C(C)C)[C@@H](C)CC)C(=O)O [liraglutide, Arg34,Lys26-(N-epsilon-(gamma-L-glutamyl(N-alfa-hexadecanoyl)))-GLP-1(7-37)]
